Where two headings read alike, the source gives them in different places. Ends that are not written are not given here.
Legend:
[1] = system: Male albino CF-1 mice; assay: Behavioral effects in mice: sleep induced by (R)α-methylhistamine; type: in vivo, mouse; settings: i.p.
Method: The overall strategy to show central nervous system antagonist activity was to challenge effects of the agonist (R)α-methylhistamine. Therefore, the first objective was to establish a dose response curve for behavioral effects of (R)α-methylhistamine. Male albino CF-1 mice weighing 20-30 g were used. Saline or (R)α-methylhistamine in saline was injected i.p. in a volume ≤0.4 ml. […] Animals were scored for the presence (1) or absence (0) of the behavior and the results were reported as the accumulated score for a 30 minute period (maximum score=9).
To assess the effects of antagonists, they were administered with the (R)α-methylhistamine in saline.

[2] = target: T1, histamine H3 receptor (Rattus norvegicus, UniProt Q9QYN8); assay: Inhibition of [^3 H]-N-alpha-methylhistamine binding to rat brain membranes; settings: for binding to the histamine H3 -receptor (in words): discussion of Table I
T1 construct: from tissue
T1 sequence (Q9QYN8 whole entry): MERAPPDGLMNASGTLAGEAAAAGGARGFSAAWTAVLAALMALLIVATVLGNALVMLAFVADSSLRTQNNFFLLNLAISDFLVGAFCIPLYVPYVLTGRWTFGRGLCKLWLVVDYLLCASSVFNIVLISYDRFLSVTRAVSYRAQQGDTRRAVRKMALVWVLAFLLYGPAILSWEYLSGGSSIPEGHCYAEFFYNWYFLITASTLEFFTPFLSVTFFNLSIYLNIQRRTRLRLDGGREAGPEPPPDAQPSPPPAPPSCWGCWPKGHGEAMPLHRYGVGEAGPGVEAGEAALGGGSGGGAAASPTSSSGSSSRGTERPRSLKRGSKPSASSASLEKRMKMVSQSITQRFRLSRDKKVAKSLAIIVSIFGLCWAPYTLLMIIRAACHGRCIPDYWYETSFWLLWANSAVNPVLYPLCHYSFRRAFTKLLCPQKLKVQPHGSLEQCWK
Method: A series of compounds were prepared and tested for their histamine H3 receptor antagonist activity. The antagonist activity of the compounds was detected by observing inhibition of (^3 H)-N-(alpha)methylhistamine activity on rat brain membranes.
The various compounds were tested for the ability to bind to the histamine H3 receptor. A binding assay in a rat brain membrane preparation, based on inhibition of binding of [^3 H]-N-alpha-methylhistamine using excess unlabeled alpha-methylhistamine to account for nonspecific binding, was developed.

[3] = target: Benzodiazephine; settings: reference compound; cited from earlier work
[4] = target: Adenylate Cyclase Forskolin; settings: reference compound; cited from earlier work
[5] = target: MK-801; settings: reference compound; cited from earlier work
[6] = target: Adenosine; settings: reference compound; cited from earlier work
[7] = target: NMDA; settings: reference compound; cited from earlier work
[8] = target: Calcium; settings: reference compound; cited from earlier work
[9] = target: PCP; settings: reference compound; cited from earlier work
[10] = target: Quisqualate; settings: reference compound; cited from earlier work
[11] = target: Serotonin 1; settings: reference compound; cited from earlier work
[12] = target: Serotonin 2; settings: reference compound; cited from earlier work
[13] = target: Dopamine 2; settings: reference compound; cited from earlier work
[14] = target: ANF (rat); settings: reference compound; cited from earlier work
[15] = target: Angiotensin; settings: reference compound; cited from earlier work
[16] = target: Potassium; settings: reference compound; cited from earlier work
[17] = target: EGF; settings: reference compound; cited from earlier work
[18] = target: NGF; settings: reference compound; cited from earlier work
[19] = target: Substance K; settings: reference compound; cited from earlier work
[20] = target: NPY; settings: reference compound; cited from earlier work
[21] = target: Neurotensin; settings: reference compound; cited from earlier work
[22] = target: Somatostatin; settings: reference compound; cited from earlier work
[23] = target: Substance P; settings: reference compound; cited from earlier work
[24] = target: Bombesin; settings: reference compound; cited from earlier work
[25] = target: VIP; settings: reference compound; cited from earlier work
[26] = target: Arg-Vasopressin V1; settings: reference compound; cited from earlier work
[27] = ^3 HN^α -methylhistamine as radioligand, rat brain membranes, first part of Table I, read-out: IC50
[28] = ^3 HN^α -methylhistamine as radioligand, rat brain membranes, second part of Table I, read-out: IC50

C[C@@H](N)Cc1c[nH]cn1 [(R)α-methylhistamine]
sleeping ([1]; 15 to 35 mg/kg, one hour after injection): dose-dependent (range of 15 to 35 mg/kg) increase in sleeping one hour after injection | sleeping ([1]; 30 minutes after injection): evident at 30 minutes after injection

CNC(=S)NCCCCc1cnc[nH]1 [Burimamide, reference compound]
IC50 [2, 27]: 156 ± 57 nM

O=C1CN=C(c2ccccc2Cl)c2cc([N+](=O)[O-])ccc2N1 [Clonazepam]
Ki [3]: 3.4 nM

CC(C)(C)OC(=O)N1CCC(c2c[nH]cn2)CC1 [Compound 2]
IC50 [2]: 243.5 ± 1.9 nM

O=C(CC1CCCCC1)N1CCC(c2c[nH]cn2)CC1 [Compound 3]
IC50 [2]: 19 ± 12 nM

O=C(CCCc1ccccc1)N1CCC(c2c[nH]cn2)CC1 [Compound 5]
IC50 [2, 27]: 262 ± 9 nM

O=C(CCC1CCCCC1)N1CCC(c2c[nH]cn2)CC1 [Compound 6]
IC50 [2, 27]: 34 ± 1.4 nM

O=C(CCc1ccccc1)N1CCC(c2c[nH]cn2)CC1 [Compound 7]
IC50 [2, 27]: 34.1 ± 3.6 nM

O=C(/C=C/c1ccccc1)N1CCC(c2c[nH]cn2)CC1 [Compound 10]
IC50 [2, 28]: 570 ± 172 nM

O=C(C(c1ccccc1)C1CCCCC1)N1CCC(c2c[nH]cn2)CC1 (centres unmarked) [Compound 11]
IC50 [2, 28]: 260 ± 38 nM

O=C(CCCC1CCCCC1)N1CCC(c2c[nH]cn2)CC1 [Compound 12]
IC50 [2, 27]: 41.4 ± 9 nM

O=C(c1ccccc1)N1CCC(c2c[nH]cn2)CC1 [Compound 13]
IC50 [2, 27]: 151 ± 44 nM

N#CN=C(Oc1ccccc1)N1CCC(c2c[nH]cn2)CC1 [Compound 47]
IC50 [2, 27]: 231 nM | binding to the histamine H3 -receptor (in words) [2]: ineffective at binding to the H3 -receptor

N#CN=C(NC1CCCCC1)N1CCC(c2c[nH]cn2)CC1 [Compound 48]
binding to the histamine H3 -receptor (in words) [2]: ineffective at binding to the H3 -receptor

N#CN=C(Nc1ccc(-c2c[nH]cn2)cc1)NC1CCCCC1 [Compound 50]
binding to the histamine H3 -receptor (in words) [2]: ineffective at binding to the H3 -receptor

O=C(CC(c1ccccc1)c1ccccc1)N1CCC(c2c[nH]cn2)CC1 [Compound 52]
IC50 [2, 27]: 93.1 nM

O=C(CCC(c1ccccc1)c1ccccc1)N1CCC(c2c[nH]cn2)CC1 [Compound 53]
IC50 [2, 27]: 124 nM

O=C(CC=C(c1ccccc1)c1ccccc1)N1CCC(c2c[nH]cn2)CC1 [Compound 54]
IC50 [2, 27]: 1000 nM

C=C[C@@]1(C)CC(=O)[C@]2(O)[C@@]3(C)[C@@H](O)CCC(C)(C)[C@@H]3[C@H](O)[C@H](OC(C)=O)[C@@]2(C)O1 [Forskolin]
Ki [4]: 29.4 nM

C[C@]12N[C@H](Cc3ccccc31)c1ccccc12 [MK801]
Ki [5]: 4.3 nM

CCNC(=O)[C@H]1O[C@@H](n2cnc3c(N)ncnc32)[C@H](O)[C@@H]1O [NECA]
Ki [6]: 120 nM

CN[C@H](CC(=O)O)C(=O)O [NMDA]
Ki [7]: 359 nM

COC(=O)C1=C(C)NC(C)=C(C(=O)OC)C1c1ccccc1[N+](=O)[O-] [Nifedipine]
Ki [8]: 1.6 nM

c1ccc(C2(N3CCCCC3)CCCCC2)cc1 [PCP]
Ki [9]: 62.3 nM

N[C@@H](Cn1oc(=O)[nH]c1=O)C(=O)O [Quisqualic Acid]
Ki [10]: 11.8 nM

NCCc1c[nH]c2ccc(O)cc12 [Serotonin]
Ki [11]: 4.6 nM | Ki [12]: 531 nM

O=C(CCCN1CCC2(CC1)C(=O)NCN2c1ccccc1)c1ccc(F)cc1 [Spiperone]
Ki [13]: 0.08 nM

CNCCc1c[nH]cn1 [[^3 H]-N-alpha-methylhistamine, reference compound]
Kd [2]: 0.19 nM

ANP: Reference Compound
Ki [14]: 0.15 nM

Angiotensin II: Reference Compound
Ki [15]: 0.2 nM

Apamin: Reference Compound (CNCKAPETALCARRCQQH; ends and bridges not checked; cysteine pairing not given here; UniProt P01500 28-45, looked up)
Ki [16]: 0.05 nM

EGF: Reference Compound
Ki [17]: 0.24 nM

NGF: Reference Compound
Ki [18]: 0.8 nM

Neurokinin A: Reference Compound
Ki [19]: 2.75 nM

Neuropeptide Y: Reference Compound
Ki [20]: 0.5 nM

Neurotensin
Ki [21]: 1.23 nM

Somatostatin: Reference Compound
Ki [22]: 0.03 nM

Substance P: Reference Compound
Ki [23]: 0.08 nM

Tyr4-Bombesin
Ki [24]: 0.55 nM

VIP: Reference Compound
Ki [25]: 1.53 nM

arg-Vasopressin: Reference Compound
Ki [26]: 4.9 nM
